# Read-outs that look alike come from different tables or passages of the source.
# What was measured:
# [1] = molecular target: polyamine domain of the NMDA receptor-complex; assay: Binding of [125I]ifenprodil to rat cortical membranes (polyamine domain interaction)
# Method: The NMDA receptor-ionophore complex consists of a number of interacting domains, including one for polyamines where ifenprodil binds to exert its noncompetitive antagonism. Ifenprodil was iodinated with Na^125 I/chloramine-T, purified and its binding characterized.
# (§1) Membranes were prepared from freshly dissected brains of adult male Sprague-Dawley rats (175-250 g).
# ^125 I]Ifenprodil: Crude membranes were prepared from freshly dissected cerebral cortices as described elsewhere [P. M. Beart et al, Neurosci. Lett., 124, 187-189 (1991)]. Briefly, assays were performed in 5 mM Tris HCl pH 7.7 containing [^125 I]ifenprodil (20,000 dpms, ~20 pM) and cortical membranes (0.5 mg wet wt.) in a final volume of 0 5 mL Incubations were for 30 min at 20° C., in triplicate, employing 12 concentrations of competing drugs. Non-specific binding was defined with 10 mM spermine. Assays were terminated by rapid filtration through GF/B filter paper and washing [Beart et al, Id., (1991)].
# Binding data were analyzed by the iterative curve fitting programs EBDA and LIGAND as fully described elsewhere [Beart et al, Id., (1989)].
# [2] = system: NMDA receptor-ionophore complex (polyamine domain / NMDA ionophore); assay: Spermidine (polyamine)-stimulated [3H]TCP binding, functional model of coupling of the polyamine domain to the NMDA ionophore; conditions: spermidine-stimulated [3H]TCP binding, rat cortex; for IC50: at least two independent experiments
# Method: Polyamine-stimulated [^3 H]TCP: Crude synaptic ("buffy coat") membranes were prepared from freshly dissected cerebral cortices. Membrane preparations were extensively washed employing 3 freeze-thaw cycles. The final pellet was stored at -70° C. for 1-7 days prior to assay. On the day of assay, the membrane pellet was washed twice by resuspension and centrifugation (45,000 g, 10 min. ). […] Assays were terminated by rapid vacuum filtration through GF/B filter paper (pre-soaked in 0.5% aqueous polyethyleneimine) in a Brandel M-48R Cell Harvester and thorough washing with ice-cold 5 mM Tris HCl pH 7.7.
# sigma site [3] = assay: Sigma site binding: inhibition of R(+)-[3H]3-PPP binding; parameters: species or system rat; conditions: for inhibition of binding of R(+)-[3H]3-PPP / affinity for the high affinity sigma site / model describing the interaction with the site labelled by R(+)-[3H]3-PPP: in words; for affinity for the high affinity sigma site: computer-assisted analyses
# Method: as §1
# R(+-^3 H]3-PPP: Crude membranes were prepared from whole brain (minus cerebellum) as described previously [P. M. Beart et al, J. Neurochem., 53, 779-788 (1989)]. A filtration binding assay was employed under similar conditions to those of Largent et al (1986) with 3 nM R (+)-[^3 H]-3-PPP and a 90 min. incubation at 25° C. (Beart et al, 1989). Non-specific binding was defined with 10 μ1,3-di(2-tolyl)guanidine (DTG).
# Binding data were analyzed by the iterative curve fitting programs EBDA and LIGAND as fully described elsewhere [Beart et al, Id., (1989)]. Results obtained from experiments examining spermidine-stimulated binding of ^3 H]TCP were analyzed by the program FLEXIFIT [V. Guardabasso et al, FASEB J., 2, 209-215 (1988)] which iteratively fits data to a sigmoidal model providing estimates of IC50 and slope for the drug under study.
# [4] = in certain cases and mostly high doses; cited from earlier work
# NMDA receptor complex = conditions: [3H]TCP and [3H]dizocilpine (MK-801); cited from earlier work
# [5] = Arch. Int. Pharm., 1983; cited from earlier work
# sigma site [6] = conditions: P. C. Contreras et al, 1990; cited from earlier work
# NMDA receptor = conditions: C. Carter et al, 1988; cited from earlier work
# sigma site [7] = conditions: J. Benavides et al, 1990; cited from earlier work
# [8] = rat cortical membranes, mean ± s.e.m., n = 3 or 4, read-out: [125I] IFENPRODIL Kd
# [9] = one site fit, pooled data, n = 2 independent experiments, read-out: KG = Dissociation constant for one site fit
# [10] = two site fit, value in parentheses (exception to better 2 site fit)
# [11] = two site fit, value in parentheses (exception to better 2 site fit), read-out: KH = Dissociation constant at high affinity site for two site fit
# [12] = two site fit, value in parentheses (exception to better 2 site fit), read-out: KL = Dissociation constant at low affinity site for two site fit
# [13] = two site fit, fitted better to 2 site model (P < 0.05)
# [14] = one site fit, *one experiment, read-out: KG = Dissociation constant for one site fit
# [15] = two site fit, fitted better to 2 site model (P < 0.05), read-out: KH = Dissociation constant at high affinity site for two site fit
# [16] = two site fit, fitted better to 2 site model (P < 0.05), read-out: KL = Dissociation constant at low affinity site for two site fit
# [17] = n=4 (spermine), n=3 (spermidine), read-out: dissociation constants for spermine and spermidine (inhibition of specific [125I]ifenprodil binding)
compound,measurement,setting,value
CC(C(O)c1ccc2c(c1)CCS2)N1CCC(Cc2ccccc2)CC1 (centres unmarked) [Compound 186],Kd,[1]; [8],6.7 ± 1.1 µM
same,SPERMIDINE [3H] TCP IC50 (class symbol: inhibitory at 50 μM),[2],+
same,inhibition of binding of R(+)-[3H]3-PPP,sigma site [3],very potent inhibitors
same,Kd,sigma site [3]; [9],0.03 µM
same,% RH = Percent of high affinity binding sites for two site fit,sigma site [3]; [10],72%
same,Kd,sigma site [3]; [11],0.0029 µM
same,Kd,sigma site [3]; [12],0.6 µM
"CC(NCCCCc1ccccc1)C(O)c1ccc2c(c1)CCS2 (single isomer, unassigned) [Compound 184]",Kd,[1]; [8],6.3 ± 1.8 µM
same,SPERMIDINE [3H] TCP IC50 (class symbol: inhibitory at 50 μM),[2],+
same,affinity for the high affinity sigma site,sigma site [3],appreciable affinity
same,Kd,sigma site [3]; [9],0.23 µM
same,% RH = Percent of high affinity binding sites for two site fit,sigma site [3]; [13],54%
CC(NCCCCOc1ccccc1)C(O)c1ccc2c(c1)CCCS2 (centres unmarked) [Compound 24],Kd,[1]; [8],3.7 ± 1.1 µM
same,SPERMIDINE [3H] TCP IC50 (class symbol: inhibitory at 50 μM),[2],+
same,Kd,sigma site [3]; [14],0.39 µM
same,% RH = Percent of high affinity binding sites for two site fit,sigma site [3]; [10],63%
same,Kd,sigma site [3]; [11],0.089 µM
same,Kd,sigma site [3]; [12],3 µM
"CCCCN(C)CC(O)c1ccc2c(c1)CCC2 (centres unmarked) [1-(5-indanyl)-2-amino-N,N-n-butyl-methylethanol]",CNS-activity,[4],in certain cases and mostly high doses posess a CNS-activity
CC(NCCCCc1ccccc1)C(O)c1ccc2c(c1)CCCS2 (centres unmarked) [Compound 2],Kd,[1]; [8],9.3 ± 5.5 µM
same,SPERMIDINE [3H] TCP IC50 (class symbol: inhibitory at 50 μM),[2],+
same,Kd,sigma site [3]; [14],0.4 µM
same,% RH = Percent of high affinity binding sites for two site fit,sigma site [3]; [10],72%
same,Kd,sigma site [3]; [11],0.15 µM
same,Kd,sigma site [3]; [12],4.3 µM
"C=CCN1CCC2(C)c3cc(O)ccc3CC1C2C (single isomer, unassigned; (+)) [(+)SKF10.047, N-allylnormetazocine, reference compound]",Kd,sigma site [3]; [9],1.5 µM
same,% RH = Percent of high affinity binding sites for two site fit,sigma site [3]; [13],60%
same,Kd,sigma site [3]; [15],0.048 µM
same,Kd,sigma site [3]; [16],6.3 µM
"CC(CCc1ccccc1)NC(C)C(O)c1ccc(O)cc1 (centres unmarked) [Nylidrin, reference compound]",Kd,[1]; [8],30 ± 8.5 µM
same,IC50,[2],73 µM
same,model describing the interaction with the site labelled by R(+)-[3H]3-PPP,sigma site [3],better described by a two-site model
same,Kd,sigma site [3]; [9],0.038 µM
same,% RH = Percent of high affinity binding sites for two site fit,sigma site [3]; [13],86%
same,Kd,sigma site [3]; [15],0.019 µM
same,Kd,sigma site [3]; [16],11 µM
"NCCCNCCCCNCCCN [spermine, reference compound]",effect on binding of channel ligands,NMDA receptor complex,profoundly enhance the binding of channel ligands
same,dissociability of [125I]ifenprodil specific binding,[1]; 1 mM spermine,dissociable
same,Kd,[1]; [17],24 µM
CC(NCCCc1ccccc1)C(O)c1ccc2c(c1)CCCS2 (centres unmarked) [Compound 75],Kd,[1]; [8],5 ± 1.4 µM
same,SPERMIDINE [3H] TCP IC50 (class symbol: inhibitory at 50 μM),[2],+
same,Kd,sigma site [3]; [9],0.34 µM
same,% RH = Percent of high affinity binding sites for two site fit,sigma site [3]; [13],67%
same,Kd,sigma site [3]; [15],0.086 µM
same,Kd,sigma site [3]; [16],4.3 µM
CC(C(O)c1ccc2c(c1)CCCS2)N1CCC(Cc2ccccc2)CC1 (centres unmarked) [Compound 26],Kd,[1]; [8],12 µM
C[C@H](NCCCCc1ccccc1)[C@H](O)c1ccc2c(c1)CCS2 (relative stereo) [Compound 7],Kd,[1]; [8],3.6 ± 0.3 µM
same,IC50,[2],8.2 µM
same,antihypertensive effect,[5],antihypertensive effect
same,anxiolytic activity,[5],anxiolytic activity
same,affinity for the high affinity sigma site,sigma site [3],appreciable affinity
same,Kd,sigma site [3]; [9],0.17 µM
same,% RH = Percent of high affinity binding sites for two site fit,sigma site [3]; [13],66%
same,Kd,sigma site [3]; [15],0.044 µM
same,Kd,sigma site [3]; [16],11 µM
OC(CNC1CCCCCC1)c1ccc2c(c1)CCC2 (centres unmarked) [1-(5-indanyl)-2-amino-N-cycloheptyl-ethanol],CNS-activity,[4],in certain cases and mostly high doses posess a CNS-activity
C[C@H](NCCCCc1ccccc1)[C@@H](O)c1ccc2c(c1)CCS2 (relative stereo) [Compound 183],Kd,[1]; [8],9.3 ± 5.4 µM
same,SPERMIDINE [3H] TCP IC50 (class symbol: inhibitory at 50 μM),[2],+
same,Kd,sigma site [3]; [9],0.45 µM
same,% RH = Percent of high affinity binding sites for two site fit,sigma site [3]; [10],84%
same,Kd,sigma site [3]; [11],0.3 µM
same,Kd,sigma site [3]; [12],130 µM
CC(CCCc1ccccc1)NC(C)C(O)c1ccc2c(c1)CCCS2 (centres unmarked) [Compound 42],Kd,[1]; [8],2.7 ± 0.4 µM
same,SPERMIDINE [3H] TCP IC50 (class symbol: inhibitory at 50 μM),[2],+
OC(CN1CCN(Cc2ccccc2)CC1)c1ccc2c(c1)CCC2 (centres unmarked) [1-(5-indanyl)-2-amino-N-phenylmethylpiperazinoethanol],CNS-activity,[4],in certain cases and mostly high doses posess a CNS-activity
"NCCCCNCCCN [spermidine, reference compound]",effect on binding of channel ligands,NMDA receptor complex,profoundly enhance the binding of channel ligands
same,Kd,[1]; [17],44 µM
"CC(C(O)c1ccc(O)cc1)N1CCC(Cc2ccccc2)CC1 (centres unmarked) [Ifenprodil, reference compound]",affinity for the sigma site in vitro,sigma site [6],considerable affinity
same,NMDA receptor antagonism,NMDA receptor,noncompetitive NMDA receptor antagonists
same,sigma binding affinity in vivo,sigma site [7],Sigma binding affinity has also been found in vivo
same,Kd,[1]; [8],0.15 ± 0.03 µM
same,IC50,[2],6.8 µM
same,model describing the interaction with the site labelled by R(+)-[3H]3-PPP,sigma site [3],better described by a two-site model
same,Kd,sigma site [3]; [9],0.02 µM
same,% RH = Percent of high affinity binding sites for two site fit,sigma site [3]; [13],82%
same,Kd,sigma site [3]; [15],0.011 µM
same,Kd,sigma site [3]; [16],19 µM
"OC(CN1CCC(Cc2ccc(F)cc2)CC1)c1ccc(Cl)cc1 (centres unmarked) [SL82.0715, reference compound]",dissociability of [125I]ifenprodil specific binding,[1]; 16.7 μM SL 82.0715,poorly dissociable
same,Kd,"[1]; n=3, read-out: dissociation constant of SL82.0715 ([125I]ifenprodil binding)",2.3 ± 0.13 µM
same,Kd,[1]; [8],2.3 ± 0.1 µM
1-(4chlorophenyl)-2-[1-(4-fluorophenyl)piperidinyl]ethanol,NMDA receptor antagonism,NMDA receptor,noncompetitive NMDA receptor antagonists
"CC(NCCCCc1ccccc1)C(O)c1ccc2c(c1)CCS2 (single isomer, unassigned) [Compound 185]",Kd,[1]; [8],3.5 ± 1.1 µM
same,IC50,[2],59 µM
same,inhibition of binding of R(+)-[3H]3-PPP,sigma site [3],very potent inhibitors
same,affinity for the high affinity sigma site,sigma site [3],appreciable affinity
same,Kd,sigma site [3]; [9],0.032 µM
same,% RH = Percent of high affinity binding sites for two site fit,sigma site [3]; [10],63%
same,Kd,sigma site [3]; [11],0.0046 µM
same,Kd,sigma site [3]; [12],0.3 µM

# — patent US5462965A, “Use of heterocyclic amino-alcohol compounds for treatment of CNS diseases” (GD Searle & Co., priority 1992, dated 1995)
